# From patent publication US7875600B2, “Pyrimidine compounds as purine receptor antagonist” (Vernalis (R&D) Limited, priority 2004, dated 2011)
# pKi: −log10 of the molar value.
# Legend:
# [1] = target: human adenosine A2A receptors (Homo sapiens, UniProt P29274); test: Binding affinities at hA2A receptors, displacement of [3H]-CGS 21680; settings: human adenosine A2A receptor, [3H]-CGS 21680 displacement
# Excerpt: Adenosine Receptor Binding Binding Affinities at hA2A Receptors
# The compounds were examined in an assay measuring in vitro binding to human adenosine A2A receptors by determining the displacement of the adenosine A2A receptor selective radioligand [^3H]-CGS 21680 using standard techniques.
# [2] = tested on: haloperidol-induced deficits in locomotor activity in mice; test: Haloperidol-induced hypolocomotion model; assay type: in vivo; settings: oral, dose of 30 mg/kg
# Excerpt: Haloperidol-Induced Hypolocomotion Model
# This approach is also considered a valid method for screening drugs with potential antiparkinsonian effects. Thus, the ability of novel adenosine antagonists to block haloperidol-induced deficits in locomotor activity in mice can be used to assess both in vivo and potential antiparkinsonian efficacy.
# Female TO mice (25-30 g) obtained from Harlan, UK, are used for all experiments. Animals are housed in groups of 8 [cage size—40 (width)×40 (length)×20 (height) cm] under 12 h light/dark cycle (lights on 08:00 hr), in a temperature (20±2° C.) and humidity (55±15%) controlled environment. Animals have free access to food and water, and are allowed at least 3 days to acclimatize after delivery before experimental use.
# Liquid injectable haloperidol (1 ml Serenance ampoules from Baker Norton, Harlow, Essex, each containing haloperidol BP 5 mg) are diluted to a final concentration of 0.02 mg/ml using saline. Test compounds are typically prepared as aqueous suspensions in 1% methyl cellulose. All compounds are administered orally in a volume of 10 ml/kg.
# 1.5 h before testing, mice are administered 0.2 mg/kg haloperidol, a dose that reduces baseline locomotor activity by at least 50%. […] Horizontal locomotor activity is determined by placing the cages within a frame containing a 4×7 array of photocells linked to a computer, which tabulates beam breaks. […]
# Parkinsonian patients = settings: 15 Parkinsonian patients, up to 12 weeks, 150 mg/day oral; cited from earlier work
# cataleptic responses = settings: cited from earlier work
# human adenosine A2A receptors, sequence (P29274 whole entry): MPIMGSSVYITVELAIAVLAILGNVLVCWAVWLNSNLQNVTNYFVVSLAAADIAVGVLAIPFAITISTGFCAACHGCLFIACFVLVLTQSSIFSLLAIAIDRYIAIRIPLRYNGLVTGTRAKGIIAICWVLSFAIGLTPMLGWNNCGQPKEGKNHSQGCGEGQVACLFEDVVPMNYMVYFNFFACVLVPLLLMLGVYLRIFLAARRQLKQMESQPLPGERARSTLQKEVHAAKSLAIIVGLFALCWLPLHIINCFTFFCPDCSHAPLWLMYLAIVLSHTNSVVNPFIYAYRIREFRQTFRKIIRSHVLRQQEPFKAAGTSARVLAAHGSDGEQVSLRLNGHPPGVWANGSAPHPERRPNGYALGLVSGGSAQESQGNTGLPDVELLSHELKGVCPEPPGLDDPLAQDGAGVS
smiles,measurement,setting,value
"Nc1nc(C(=O)NCc2ccccc2F)cc(-c2ccco2)n1 [Example 1, 2-Amino-N-(2-fluorobenzyl)-6-(2-furyl)pyrimidine-4-carboxamide]",pKi,[1],> 7.30
same,activity in haloperidol-induced hypolocomotion model,[2],orally active
"Cn1c(=O)c2[nH]cnc2n(C)c1=O [theophylline, 1,3-dimethylxanthine]",mean objective disability scores,Parkinsonian patients,significant improvements
"CCCn1c(=O)c2c(nc(/C=C/c3ccc(OC)c(OC)c3)n2C)n(CCC)c1=O [KF 17837, (E)-8-(3,4-dimethoxystyryl)-1,3-dipropyl-7-methylxanthine]",anticataleptic effects of a subthreshold dose of L-DOPA plus benserazide,cataleptic responses; in vivo,potentiated
same,catalepsy induced by haloperidol and reserpine,cataleptic responses; in vivo,reduced
same,cataleptic responses induced by intracerebroventricular CGS 21680,cataleptic responses; oral administration,significantly ameliorated
